Results published in patent US5280548A, “Emission based fiber optic sensors for pH and carbon dioxide analysis” (BOC Health Care, Inc., priority 1993, dated 1994).
“Also recorded” adds a separate entry of the source. Like-named read-outs stand apart in the source and are kept apart here. Each block holds one compound with its values, some of them ahead of it.

Assays:
[1] = 25° C.; cited from earlier work
[2] = pKa determination from pH-dependent emission; assay type: physicochemical
Experimental: (§1) The effect of temperature on the parameters describing the pH dye was determined. […] The emission spectra were measured as a function of pH at 20° C., 25° C., 30° C., 37° C., and 45° C. […] The relative emission intensity, B, was defined as the ratio of the emission from the base tautomer at 650 nm to the emission from the isosbestic point. The relative emission, A, was defined as the ratio of the isosbestic point emission to the emission from the acid tautomer at 650 nm. The quantities A and B define the upper and lower asymptotes on the response vs. pH sigmoidal curve. The pKa, A, and B were determined for the series of emission spectra at each temperature by fitting the emission intensity at 650 nm to the theoretical response vs. pH curve using non-linear regression.

[3] = Emission lifetime measurement; assay type: physicochemical; conditions: for lifetime (τ): 25° C.
From the text: 1969, 31, 1-13], as a standard.

Absorption spectra = assay type: physicochemical; conditions: 25° C.
Experimental: Absorption spectra were recorded on a Perkin-Elmer Lambda 5 spectrophotometer.

[4] = Effect of temperature on emission parameters A and B of the pH dye; assay type: physicochemical; conditions: for A (relative emission, lower asymptote of response vs. pH) / B (relative emission intensity, base tautomer / isosbestic point): 650 nm
Experimental: as §1

Solubility observations = assay type: physicochemical
Experimental: The polymers prepared above were soluble in acetone, dioxane, tetrahydrofuran, ethanol, and dimethylacetamide. A concentrated solution of the polymer in one of these solvents was prepared and applied to the distal tip of a methacrylate optical fiber, the tip of which had been prepared by cleaving normal to its longitudinal axis with a fresh scalpel blade. The sensors were allowed to dry overnight before use.

[5] = for emission yield (Φ): 25° C.
Experimental: Emission spectra were recorded on either a ISS Greg-200 spectrofluorometer or a single-fiber spectrofluorometer discussed below. Absorption spectra were recorded on a Perkin-Elmer Lambda 5 spectrophotometer. Lifetime measurements were recorded with the ISS Greg-200 spectrofluorometer using excitation by a Coherent 700 Dye Laser with Rhodamine 6G synchronously pumped with a frequency doubled Coherent Antares mode-locked Nd:YAG laser. The mode-locker was driven by a Marconi Instruments 2022a frequency synthesizer locked in phase to another Marconi Instruments 2022a frequency synthesizer which modulated the photomultiplier tubes on the Greg-200 instrument.
Emission yields were corrected for instrument response and measured using tetraphenylporphyrin in benzene, .PHI.=0.11 [Seybold, Paul G.; Gouterman, Martin J. Mol. Spectrosc. 1969, 31, 1-13], as a standard. Lifetime measurements were calibrated with scattered light, .tau.=0. […] The output from the laser was measured before and after the experiment to ensure constant excitation intensity.

[6] = aqueous solution, 540 nm excitation

Compound: O=C=O [carbon dioxide]
pKa1 [1]: 6.35
pKa2 [1]: 10.33
solubility in water [1]: 0.759 ml carbon dioxide @ STP/ml water

pKa ([2]; 20° C. (Table 2)): 7.79 ± .03
pKa ([2]; 25° C. (Table 1)): 7.58 ± 0.04
pKa ([2]; 25° C. (Table 2)): 7.58 ± .01
pKa ([2]; 30° C. (Table 2)): 7.57 ± .03
pKa ([2]; 37° C. (Table 1)): 7.44 ± 0.05
pKa ([2]; 37° C. (Table 2)): 7.44 ± .04
pKa ([2]; 45° C. (Table 2)): 7.43 ± .06
lifetime (τ) ([3]; acid form, Conc. 10e-6 M): .80 ns
lifetime (τ) ([3]; acid form, Conc. 10e-5 M): .80 ns
lifetime (τ) ([3]; acid form, Conc. 10e-4 M): .78 ns
lifetime (τ) ([3]; base form, Conc. 10e-6 M): 1.38 ns
lifetime (τ) ([3]; base form, Conc. 10e-5 M): 1.41 ns
lifetime (τ) ([3]; base form, Conc. 10e-4 M): 1.26 ns
lifetime, acid tautomer ([3]; acid tautomer): 800 psec
lifetime of acid tautomer, difference from previous measurement ([3]; vs. Whitaker et al. 1991): 200 psec
lambda max (Absorption spectra; acid form, Conc. 10e-6 M): 551 nm
ε (Absorption spectra; acid form, Conc. 10e-6 M): 19920 M⁻¹ cm⁻¹
lambda max (Absorption spectra; acid form, Conc. 10e-5 M): 553 nm
ε (Absorption spectra; acid form, Conc. 10e-5 M): 19380 M⁻¹ cm⁻¹
lambda max (Absorption spectra; acid form, Conc. 10e-4 M): 549 nm
ε (Absorption spectra; acid form, Conc. 10e-4 M): 12650 M⁻¹ cm⁻¹
lambda max (Absorption spectra; base form, Conc. 10e-6 M): 577 nm
ε (Absorption spectra; base form, Conc. 10e-6 M): 38220 M⁻¹ cm⁻¹
lambda max (Absorption spectra; base form, Conc. 10e-5 M): 576 nm
ε (Absorption spectra; base form, Conc. 10e-5 M): 37510 M⁻¹ cm⁻¹
lambda max (Absorption spectra; base form, Conc. 10e-4 M): 572 nm
ε (Absorption spectra; base form, Conc. 10e-4 M): 27770 M⁻¹ cm⁻¹
A and B vs. temperature, in words ([4]; 20-45° C.): independent of temperature
A (relative emission, lower asymptote of response vs. pH) ([4]; 20° C.): .721 ± .062
B (relative emission intensity, base tautomer / isosbestic point) ([4]; 20° C.): 5.07 ± .11
A (relative emission, lower asymptote of response vs. pH) ([4]; 25° C.): .628 ± .061
B (relative emission intensity, base tautomer / isosbestic point) ([4]; 25° C.): 4.22 ± .10
A (relative emission, lower asymptote of response vs. pH) ([4]; 30° C.): .678 ± .072
B (relative emission intensity, base tautomer / isosbestic point) ([4]; 30° C.): 4.95 ± .12
A (relative emission, lower asymptote of response vs. pH) ([4]; 37° C.): .702 ± .069
B (relative emission intensity, base tautomer / isosbestic point) ([4]; 37° C.): 4.10 ± .11
A (relative emission, lower asymptote of response vs. pH) ([4]; 45° C.): .674 ± .127
B (relative emission intensity, base tautomer / isosbestic point) ([4]; 45° C.): 5.48 ± .19
emission yield (Φ) ([5]; acid form, Conc. 10e-6 M): .12
emission yield (Φ) ([5]; acid form, Conc. 10e-5 M): .12
emission yield (Φ) ([5]; acid form, Conc. 10e-4 M): .018
emission yield (Φ) ([5]; base form, Conc. 10e-6 M): .2
emission yield (Φ) ([5]; base form, Conc. 10e-5 M): .22
emission yield (Φ) ([5]; base form, Conc. 10e-4 M): .082
emission maximum, acid peak [5, 6]: 590 nm
emission maximum, base peak [5, 6]: 640 nm
isosbestic point ([5]; emission spectra as a function of pH): 605 nm
Compound: seminaphthorhodaflor-1-carboxylate [SNARF-1C]
emission lifetime, in words [3]: The emission lifetimes are insensitive to concentration; also recorded: The lifetime of the acid tautomer of SNARF-1C is shorter than that for the base tautomer
solubility, in words (Solubility observations): The potassium salt of the acid was much easier to dissolve
emission spectra, in words ([5]; shift of spectra): do not differ from the previously published spectra; also recorded: did not shift with temperature
